Results: patent publication US20220370416A1, “COMPOUNDS AND METHODS FOR TARGETED DEGRADATION OF KRAS” (Arvinas Operations, Inc., priority 2020, published 2022)

Assays:
Format in all cases: cell-based
KRAS^G12C [1] = target: T1, KRAS^G12C (Homo sapiens, UniProt P01116, G12C); assay: KRAS^G12C degradation in heterozygous H358 cells; parameters: endogenous in cells; host or cells: NCI-H358; conditions: heterozygous H358 cells (FIG. 4A)
KRAS^G12C [2] = target: T1, KRAS^G12C; assay: KRAS^G12C engagement and degradation by immunoblot in NCI-H2030 cells; parameters: MRTX849-VHL bifunctional compounds engage and degrade endogenous KRAS^G12C in NCI-H2030 cells; endogenous in cells; host or cells: NCI-H2030, NCI-H358, MIA PaCa-2, SW1573, NCI-H23; conditions: for KRAS, two-way ANOVA significance vs DMSO: FIG. 9A
Description: NCI-H2030 (CRL-5914), MIA PaCa-2 (CRL-1420), NCI-H23 (CRL-5800), NCI-H358 (CRL-5807), and HCT-116 (CCL-247) cells were obtained from ATCC, expanded immediately, and frozen down. Vials were thawed and used within 20 passages. SW1573 cells were a gift from Arvinas and were handled in the same manner. NCI-H2030, NCI-H23, and NCI-H358 were cultured in RPMI (ATCC30-2001) supplemented with 10% FBS (Biological Industries; cat. no. S1480) and 1% Penicillin-Streptomycin (ThermoFisher; cat. no. 15140122). HCT-116 cells were maintained in high glucose DMEM (ThermoFisher; cat. no. 11965084) supplemented as above. MIA PaCa-2 cells were cultured in high glucose DMEM supplemented with 10% FBS, 2.5% horse serum (ThermoFisher; cat. no. 26050-088; lot 2109875), and 1% Penicillin-Streptomycin. SW1573 cells were maintained in DMEM/F12 Nutrient Mix with GlutaMAX supplement (ThermoFisher; cat. no. 10565018) with 10% FBS and 1% Penicillin-Streptomycin added. DPBS (ThermoFisher; cat. no. 14190250) was used to wash cells and 0.25% Trypsin-EDTA (ThermoFisher; cat. no. […]) was used to detach cells for passaging. […] The VHL ligand was generously provided by Arvinas.
Between 2.5×10^5 and 6.0×10^5 cells were seeded into 6-well plates (Corning; cat. no. 353046). The next day, media was removed and cells were treated with 2.5 μM LC-2 for 1, 2, 4, 8, 12, or 24 hours. […] For 24-hour time course experiments, cells were treated at the indicated times and concurrently lysed in RIPA buffer supplemented as described previously. For longer time course experiments and time courses in which cells were treated with LC-2 or LC-2 Epimer, cells were concurrently treated with either compound, then lysed by scraping in RIPA buffer at the indicated time points.
Between 2.5×10^5 and 5.0×10^5 cells were seeded into 6-well plates. The next day cells were pretreated with DMSO, 500 μM or 1 mM VHL ligand, 1 μM epoxomicin, 1 μM […], or 100 nM […] bafilomycin A1 for 1 hour. Media was then removed and cells were treated with DMSO, 2.5 μM LC-2 plus DMSO, 2.5 μM LC-2 Epimer plus DMSO, or co-treated with 2.5 μM LC-2 and the corresponding competitor/inhibitor. H2030 cells were treated for 4 hours and H23 cells were treated for 24 hours, after which cells were lysed by scraping in RIPA buffer supplemented as described previously.
Cell lysates were clarified at 21000×g for 15 mins at 4° C. Protein levels were quantified using a 50:1 mixture of bicinchoninic acid solution (Millipore Sigma; cat. no. B9643) and 4% (w/v) copper(II) sulfate solution (Millipore Sigma; cat. no. C2284) incubated at 37° C. for 30 mins. Absorbance values at 560 nm were read on an EnVision 2101 Multilabel Reader (PerkinElmer). Proteins were separated using 26 well Criterion TGX precast 4-15% (cat. no. 5671085) or 8-16% (cat. no. 5671105) gradient midi gels. After separation, proteins were transferred to nitrocellulose or PVDF membranes at 76 V for 2 hours at 4° C. Blots were then blocked in 5% milk in tris-buffered saline with Tween-20 (TBST; 20 mM Tris, 150 mM NaCl, 0.02% Tween-20). After blocking, blots were incubated in primary antibody overnight (12-18 hours) at 4° C. or for 2 hours at room temperature with mild agitation at the manufacturer's indicated dilution in either 5% milk or 5% BSA in TBST. Blots were then washed thrice with TBST for 5 mins at room temperature. After washing, blots were incubated with 1:5,000-1:10,000 of donkey anti-rabbit (GE Life Sciences; NA934) or sheep anti-mouse (GE Life Sciences; NA931) secondary antibody diluted in 5% milk for 1 hour at room temperature with mild agitation. Blots were again washed thrice with TBST for 5 mins. Chemiluminescent signal was generated using Amersham ECL Prime Western Blotting Detection Reagant (GE Life Sciences; cat. no. RPN2232) or SuperSignal West Femto Maximum Sensitivity Substrate (ThermoFisher; cat. no. 34095). Images were obtained using a Bio-Rad ChemiDoc Imager.

KRAS^G12C [3] = target: T1, KRAS^G12C; assay: KRAS^G12C engagement and degradation in homozygous, MRTX849 resistant SW1573 cells; parameters: MRTX849-VHL bifunctional compounds engage and degrade endogenous KRAS^G12C in NCI-H2030 cells; endogenous in cells; host or cells: NCI-H2030, NCI-H358, MIA PaCa-2, SW1573, NCI-H23
[4] = NCI-H2030, homozygous KRAS^G12C
[5] = SW1573 cells, 72 hour time course (FIG. 8)
[6] = SW1573 cells, time course (FIG. 6B)

| SMILES | induction of KRAS^G12C degradation (KRAS^G12C [1]) | Dmax (KRAS^G12C [2]; NCI-H2030) [%] | KRAS, two-way ANOVA significance vs DMSO (KRAS^G12C [2]; NCI-H2030, 0.1 μM) | KRAS, two-way ANOVA significance vs DMSO (KRAS^G12C [2]; NCI-H2030, 0.25 μM) | earliest time KRAS^G12C binding seen (KRAS^G12C [2]; NCI-H2030, 2.5 μM) [h] | time to maximum degradation (KRAS^G12C [2]; NCI-H2030, 2.5 μM) [h] | KRAS degradation (KRAS^G12C [2]; NCI-H2030, 2.5 μM, 4 hours) [%] | persistence of maximum degradation (KRAS^G12C [2]; NCI-H2030, 2.5 μM, 24 hour time course) | DC50 (KRAS^G12C [2]; [4]) [nM] | Dmax (KRAS^G12C [2]; [4]) [%] | lowest concentration inducing maximal degradation of endogenous KRAS^G12C (KRAS^G12C [2]; NCI-H2030 cells) [µM] | KRAS^G12C degradation maintained for (KRAS^G12C [3]; [5]) [h] | time to onset of KRAS^G12C degradation (KRAS^G12C [3]; [5]) [h] | maximal KRAS^G12C degradation maintained up to (KRAS^G12C [3]; [6]) [h] | time to maximal KRAS^G12C degradation (KRAS^G12C [3]; [6]) [h] | induction of KRAS^G12C degradation (KRAS^G12C [3]; homozygous, MRTX849 resistant SW1573 cells (FIG. 4C)) | KRAS engagement versus degradation (KRAS^G12C [2]; NCI-H2030, 2.5 μM, 4 hours) | change of KRAS^G12C level over 72 hours (KRAS^G12C [3]; [5]) |
| --- | --- | --- | --- | --- | --- | --- | --- | --- | --- | --- | --- | --- | --- | --- | --- | --- | --- | --- |
| C=C(F)C(=O)N1CCN(c2nc(OC[C@@H]3CCCN3CCCOCCC(=O)N[C@H](C(=O)N3C[C@H](O)C[C@H]3C(=O)NCc3ccc(-c4scnc4C)cc3)C(C)(C)C)nc3c2CCN(c2cccc4cccc(Cl)c24)C3)C[C@@H]1CC#N [LC-2, (2S,4R)-1-((S)-2-(3-(3-((S)-2-(((7-(8-chloronaphthalen-1-yl)-4-((S)-3-(cyanomethyl)-4-(2-fluoroacryloyl)piperazin-1-yl)-5,6,7,8-tetrahydropyrido[3,4-d]pyrimidin-2-yl)oxy)methyl)pyrrolidin-1-yl)propoxy)propanamido)-3,3-dimethylbutanoyl)-4-hydroxy-N-(4-(4-methylthiazol-5-yl)benzyl)pyrrolidine-2-carboxamide] | induces KRAS^G12C degradation | > 75 | N.S. | N.S. | 1 | ≤ 8 | ~65 | persisted up to 24 hours | 590 ± 200 | >75 | 2.5 | 72 | ≤ 6 | 24 | 12 | induces KRAS^G12C degradation | – | – |
| C=C(F)C(=O)N1CCN(c2nc(OC[C@@H]3CCCN3CCCOCCC(=O)N[C@H](C(=O)N3C[C@@H](O)C[C@H]3C(=O)NCc3ccc(-c4scnc4C)cc3)C(C)(C)C)nc3c2CCN(c2cccc4cccc(Cl)c24)C3)C[C@@H]1CC#N [LC-2 Epimer, (2S,4S)-1-((S)-2-(3-(3-((S)-2-(((7-(8-chloronaphthalen-1-yl)-4-((S)-3-(cyanomethyl)-4-(2-fluoroacryloyl)piperazin-1-yl)-5,6,7,8-tetrahydropyrido[3,4-d]pyrimidin-2-yl)oxy)methyl)pyrrolidin-1-yl)propoxy)propanamido)-3,3-dimethylbutanoyl)-4-hydroxy-N-(4-(4-methylthiazol-5-yl)benzyl)pyrrolidine-2-carboxamide] | not | – | – | – | 1 | – | – | – | – | – | – | – | – | – | – | – | only KRAS engagement was observed | No change is observed |
